Measurements reported in US20050004218A1, “Vaccenic acid” (priority 2003, published 2005).

Columns and labels:
mammary tumors = assay: Bioassay of mammary cancer prevention (MNU-induced mammary carcinogenesis); format: in vivo, Female Sprague-Dawley rats; conditions: CLA 0.05-0.37% (treatments A-D); vaccenic acid 0.73-1.6% (treatments E-G)
Method: (§1) Protocol of animal treatment. Female Sprague-Dawley rats were purchased from Charles River Breeding Laboratories (Raleigh, N.C.) at 45 days of age and all subsequent procedures were approved by Roswell Park Cancer Institute Animal Care and Use Committee. Rats were fed the AIN-76 basal diet for 1 week to acclimatize them to the powdered diet. All animals were injected with a single dose of methylnitrosourea (MNU: 50 mg/kg body weight) intraperitoneally at 52 days of age for the induction of mammary tumors. Immediately after MNU administration, a total of 210 rats were divided into 7 groups of 30 each and maintained on different dietary treatments for the following 24 weeks. Throughout this period, rats were palpated weekly to determine the appearance, size, and location of mammary tumors. The experiment was terminated at 24 weeks after MNU administration. All tumors were excised and fixed for histological examination and only confirmed carcinomas are reported in data summaries. Randomly-selected subsets of nine rats from each treatment were necropsied. The tumor-free inguinal mammary fat pad, a portion of the liver, and plasma were retrieved. […]
(§2) Statistical analyses. Fatty acid composition data were analyzed statistically by the General Linear Model procedure of SAS (SAS Inc., Cary, N.C.). […]

[1] = Fatty acid analysis of liver, plasma and mammary fat pad lipids (Example 1); format: in vivo, Female Sprague-Dawley rats
Method: as §1, with “administration.” for “administration. All tumors were excised and fixed for histological examination and only confirmed carcinomas are reported in data summaries. Randomly-selected subsets of nine rats from each treatment were necropsied. The tumor-free inguinal mammary fat pad, a portion of the liver, and plasma were retrieved.”
Fatty acid analysis. […] However, because these typically yielded far less lipid, quantities of all reagents for methylation were adjusted to compensate for the reduced yield.
Fatty acid methyl esters were analyzed by gas chromatography (Hewlett Packard GC system 6890+with flame ionization detector) using a CP-Sil 88 capillary column (100 m×0.25 mm i.d. with 0.2 μm film thickness; Varian Inc.). […]
as §2

Structure (SMILES) | Effect of increasing dietary intake on tumor incidence (in words) (mammary tumors) | Tissue and plasma concentrations of vaccenic acid with increasing intake (in words) ([1]; FIG. 1) | Content of cis-9, trans-11 CLA within each tissue with increasing supply of vaccenic acid (in words) ([1]; liver, plasma, mammary fat pad, FIG. 3)
CCCCCC/C=C/C=C\CCCCCCCC(=O)O [cis-9, trans-11 CLA, cis-9, trans-11 octadecadienoic acid, reference compound] | the decrease was not statistically significant |  | 
CCCCCC/C=C/CCCCCCCCCC(=O)O [vaccenic acid, trans-11 octadecenoic acid] | distinct inhibitory response to vaccenic acid which was dose-dependent | increased | linearly increased
